# Measured values: US20240197750A1, “CEFTIBUTEN DOSING REGIMENS” (QPEX Biopharma, Inc., priority 2021, published 2024)
# Key:
# [1] = Pharmacokinetics of single and multiple oral doses of ceftibuten in healthy adult subjects; type: in vivo, human; details: for dose proportionality of exposure (Cmax, AUC0-12, AUC0-∞): doses of 400, 600 and 800 mg of ceftibuten
# Experimental: (§1) A double-blind, randomized, placebo-controlled, sequential ascending single- and multiple dose study of ceftibuten in healthy adult subjects was conducted. There were four cohorts of 10 subjects each who received both single and multiple oral doses (8 active and 2 placebo).
# Dose proportionality was examined graphically and using an ANOVA test of the dose-normalized Cmax, AUC0-12 and AUC0-∞ values. […] The AUC0-12 exposure of cis-ceftibuten is shown in FIG. 1 and the AUC0-12 exposure of trans-ceftibuten is shown in FIG. 2, showing that increases were dose proportional.
# [2] = Safety of single and multiple ascending oral doses of ceftibuten in healthy adult subjects; type: in vivo
# Experimental: as §1
# The event of nausea occurred in one subject in the SAD period following single administration of ceftibuten and the event of […] occurred in one subject in the MAD period following administration of the ceftibuten. […] The nausea was considered to be moderate in severity and diarrhea considered to be mild in severity with both events deemed by the investigator to be related to the study drug. The nausea persisted from Day 1 dose (SAD) until after Day 4 morning dose (MAD), despite treatment with concomitant medications. […] The incidence of treatment-related TEAEs was similar in the 400 mg (1 [12.5%] of 8 subjects) and 600 mg (2 [25.0%] of 8 subjects) ceftibuten and Pooled Placebo groups (3 [37.5%] of 8 subjects). […] The highest incidence was reported in the highest ceftibuten dose (800 mg). The most common gastrointestinal TEAEs in the 800 mg group during the MAD period were nausea in 4 out of 16 subjects (25.0%), diarrhea in 4 of 16 (25.0%), abdominal pain in 3 of 16 (18.8%), upper abdominal pain in 3 of 16 (18.8%) and abdominal discomfort in 2 of 16 subjects (12.5%). Most Gastrointestinal Disorder TEAEs were transient and mild in severity with no intervention required. […] All events were asymptomatic, resolved spontaneously after the completion of study treatment, and were not associated with elevations of alkaline phosphatase or bilirubin. • There was no trend in abnormalities that were NCS in hematology, coagulation, or urinalysis parameters.
# [3] = test system: 99 strains of Enterobacterales; assay: Resistance development study: mutant prevention concentration (MPC) of Compound 1 with ceftibuten; type: cell-based
# Experimental: 99 strains of Enterobacterales were used in resistance development studies using ceftibuten at 1 or 2 μg/ml in combination with various concentrations of the following β-lactamase inhibitor:
# Compound 1 is described in PCT Publication No. WO 2018/005662, which is incorporated herein by reference in its entirety. Concentrations of Compound 1 included 1, 2, 4 and 8 μg/ml. The goal of the study was to identify the concentration of Compound 1 (MPC, mutant prevention concentration) that will prevent appearance of mutants at two different concentrations of ceftibuten.
# [4] = multiple oral doses 400 mg ceftibuten BID
# [5] = multiple oral doses 600 mg ceftibuten BID
# [6] = multiple oral doses 800 mg ceftibuten BID
# [7] = single oral dose 400 mg ceftibuten
# [8] = single oral dose 600 mg ceftibuten
# [9] = single oral dose 800 mg ceftibuten
Compound,terminal half-life ([1]; 400-800 mg ceftibuten oral),time of peak plasma concentration post-dose ([1]; 400-800 mg ceftibuten oral),"urinary recovery, % of the administered dose ([1]; after multiple doses)","urinary recovery, % of the administered dose ([1]; after single doses)","dose proportionality of exposure (Cmax, AUC0-12, AUC0-∞) [1]","mean maximum plasma concentration [1, 4]","mean maximum plasma concentration [1, 5]","mean maximum plasma concentration [1, 6]","mean maximum plasma concentration [1, 7]","mean maximum plasma concentration [1, 8]","mean maximum plasma concentration [1, 9]",further results
Nc1nc(/C(=C/CC(=O)O)C(=O)N[C@@H]2C(=O)N3C(C(=O)O)=CCS[C@H]23)cs1 (relative stereo) [cis-ceftibuten],2.3 to 3.1 h,2.3 to 3.0 h,75.8-100%,59.5-86.9%,increased proportionally,21.7 µg/mL,28.1 µg/mL,38.8 µg/mL,17.6 µg/mL,24.1 µg/mL,28.1 µg/mL,renal clearance ([1]; 400-800 mg ceftibuten oral): 2.9 to 4.2 L/h; total body clearance ([1]; 400-800 mg ceftibuten oral): 3.9 to 5.0 L/h
Nc1nc(/C(=C\CC(=O)O)C(=O)N[C@@H]2C(=O)N3C(C(=O)O)=CCS[C@H]23)cs1 (relative stereo) [trans-ceftibuten],3.0 to 3.6 h,3.3 to 4.8 h,14.1-16.8%,9.3-12.5%,increased proportionally,1.4 µg/mL,1.9 µg/mL,2.8 µg/mL,1.1 µg/mL,1.5 µg/mL,2.2 µg/mL,
Nc1nc(/C(=C/CC(=O)O)C(=O)N[C@@H]2C(=O)N3C(C(=O)O)=CCS[C@H]23)cs1 [ceftibuten],,,,,,,,,,,,"frequency of reported TEAEs versus dose ([2]; MAD period, 400-800 mg BID): did not increase with increasing ceftibuten dose; serious, severe, life-threatening TEAEs or TEAEs resulting in death ([2]; SAD and MAD periods): no serious, severe, life-threatening TEAEs, or TEAEs resulting in death; frequency of reported TEAEs versus dose ([2]; SAD period, 400-800 mg): did not increase with increasing ceftibuten dose; ALT elevations ([2]; human, in vivo): incidence and severity of which did not increase with increasing ceftibuten dose; abnormalities in ECG parameters or physical examination ([2]; human, in vivo): no CS abnormalities; number of TEAEs reported ([2]; human, in vivo): 44; severity of TEAEs ([2]; human, in vivo): All TEAEs were mild, regardless of causality, with the exception of 2 TEAEs; vital sign parameters (blood pressure, pulse rate, body temperature, respiratory rate) ([2]; human, in vivo): no trends in changes from Baseline"
O=C([O-])c1c(F)ccc2c1O[B-](O)(O)[C@@H]1C[C@H]21.[Na+].[Na+] [Compound 1],,,,,,,,,,,,"% Strains with Compound 1 MPC <= 4 ug/ml ([3]; ceftibuten at 1 μg/ml, strains with Ceftibuten/Compound 1 MIC 0.125 (20 strains)): 90.0%; % Strains with Compound 1 MPC <= 4 ug/ml ([3]; ceftibuten at 1 μg/ml, strains with Ceftibuten/Compound 1 MIC 0.25 (16 strains)): 56.3%; % Strains with Compound 1 MPC <= 4 ug/ml ([3]; ceftibuten at 1 μg/ml, strains with Ceftibuten/Compound 1 MIC 0.5 (14 strains)): 21.4%; % Strains with Compound 1 MPC <= 4 ug/ml ([3]; ceftibuten at 1 μg/ml, strains with Ceftibuten/Compound 1 MIC 1 (12 strains)): 8.3%; % Strains with Compound 1 MPC <= 4 ug/ml ([3]; ceftibuten at 1 μg/ml, strains with Ceftibuten/Compound 1 MIC 2 (7 strains)): 28.6%; % Strains with Compound 1 MPC <= 4 ug/ml ([3]; ceftibuten at 1 μg/ml, strains with Ceftibuten/Compound 1 MIC <=0.06 (30 strains)): 96.7%; % Strains with Compound 1 MPC <= 4 ug/ml ([3]; ceftibuten at 2 μg/ml, strains with Ceftibuten/Compound 1 MIC 0.125 (20 strains)): 95.0%; % Strains with Compound 1 MPC <= 4 ug/ml ([3]; ceftibuten at 2 μg/ml, strains with Ceftibuten/Compound 1 MIC 0.25 (16 strains)): 87.5%; % Strains with Compound 1 MPC <= 4 ug/ml ([3]; ceftibuten at 2 μg/ml, strains with Ceftibuten/Compound 1 MIC 0.5 (14 strains)): 57.1%; % Strains with Compound 1 MPC <= 4 ug/ml ([3]; ceftibuten at 2 μg/ml, strains with Ceftibuten/Compound 1 MIC 1 (12 strains)): 16.7%; % Strains with Compound 1 MPC <= 4 ug/ml ([3]; ceftibuten at 2 μg/ml, strains with Ceftibuten/Compound 1 MIC 2 (7 strains)): 28.6%; % Strains with Compound 1 MPC <= 4 ug/ml ([3]; ceftibuten at 2 μg/ml, strains with Ceftibuten/Compound 1 MIC <=0.06 (30 strains)): 100.0%"
